This passage reports melting point results from a melting point compilation (Tetko et al.; mined from patent text by program, amines drawn as free bases though some values may be those of a salt).

Bounds are passed on as bounds.

On to `NS(=O)(=O)c1ccc(NC(=O)CNC2CCCCC2)c(Cl)c1`, for which the melting point lay within 213 to 215 °C.

In turn, `Cc1ccn2cc(CN3CCN(c4ccc(C(N)=O)cc4)CC3)nc2c1` had a melting point of 217 to 218 °C. Regarding `COC(=O)c1cccc2c1c1c(n2Cc2ccccc2)CN(Cc2ccccc2)CC1=O`, the melting point is 198 to 199 °C. `CC(C)N1NN=C(c2cn(C)c3ccccc3c2=O)N1` showed a melting point of 134 to 137 °C. In the case of `COc1cc2c(c3c1OC(C)(C)C3)C(c1ccccc1)=NC(COC(C)=O)C2` (stereo not drawn), the melting point lay within 168 to 169 °C.

For the molecule `CN1CCN(C(=O)c2ccc(-c3[nH]nc4c3C(=O)c3c(NC(=O)NC5CNCCO5)cccc3-4)s2)CC1` (stereo not drawn), the melting point was 190 °C. With `Cc1cc(C)c(C)c(COc2cccc(-c3c(-c4ccccc4)coc3C(=O)NNC(=O)c3ccc(O)c([N+](=O)[O-])c3)c2)c1C`, the melting point was 130 to 132 °C. Take `COc1cccc2c(Cl)c(CCCCl)cnc12`: the melting point lay in the range of 86 to 89 °C. Regarding `CC(C)(C)OC(=O)N1CCC(CNc2ccccn2)CC1`, the melting point lay in the range of 126 to 130 °C. Next, `O=C(Nc1cc(Cl)ccn1)c1ccn2c1CSC2c1cccnc1` (stereo not drawn): 190 °C; `COCCc1nc2c(N)nc3ccccc3c2n1CCOCCNC(=O)c1ccc(C(=O)NCCOCCn2c(CCOC)nc3c(N)nc4ccccc4c32)cc1`: 229 to 233 °C; `COC(=O)Nc1nc2ccc(S(=O)c3ccccc3)cn2c1Br` (stereo not drawn): 150 to 152 °C. As for `O=C(c1ccc(CCl)cc1)N1CCCCC1`, the melting point lay in the range of 106 to 108 °C. Turning to `O=c1sc2ccccc2n1Cc1nc2ccccc2n1-c1ccccc1`, the melting point was in the range of 196 to 198 °C.

`C=C(C)CN1Cc2cc(Cl)cc3[nH]c(=O)n(c23)CC1C` (stereo not drawn): the melting point came to 175 °C. `COc1cc(O)c2c(=O)c(OC)c(-c3ccc(OC4OC(CO)C(O)C(O)C4O)c(OC)c3)oc2c1` (stereo not drawn) returned a melting point of 203 to 204 °C. The same measure for `CCOC(=O)Cc1ccnc2c(N)cccc12`: 71 to 77 °C.

For the molecule `COc1ccc(C(C)(C)C)cc1NC(=O)Nc1ccc(-c2cnc3c(c2)NC(=O)CN3)c2ccccc12`, the melting point was > 230 °C. Next, `CCOC1=C([N+](=O)[O-])CN(C(C)C)C1=O`: 47 °C; `CCOP(=O)(O)Cc1nc2nc[nH]c2c2nc(-c3ccc(C(C)(C)C)cc3)nn12`: 254 to 256 °C; `COc1ccc(-c2ccn(-c3ccc4c5c(n(C)c4c3)CN(C(=O)OC(C)(C)C)CC5)c(=O)c2)cc1`: 306 to 308 °C. Regarding `Cc1[nH]c(=S)[nH]c1C(=O)c1ccccc1`, the melting point was in the range of 268 to 269 °C. `O=C1c2ccccc2C(=O)N1c1cc(Cl)c(OC(F)(F)C(F)(F)Br)c(Cl)c1`: the melting point is 62 to 63.5 °C.

Consider `Cc1ccc(S(=O)(=O)N(Cc2ccc(C#N)cc2F)C2CCCC2)cc1`, for which the melting point was 178 to 179 °C. With `CC(=O)Nc1nc(-c2ccc(NS(C)(=O)=O)c(Oc3ccc(F)cc3F)c2)cs1`, the melting point lay within 192 to 193 °C. On to `CCn1cc(C=CC(=O)NC2CCNC(=O)C2)nc1-c1ccccc1` (stereo not drawn), for which the melting point was in the range of 270 to 272 °C. In turn, `COc1ccnc(CCc2nc3ccc(OC)nc3[nH]2)c1` showed a melting point of 93 to 95 °C.

On to `C[C@@H](NC(=O)c1cncc(-c2ccc(Cl)cc2)c1)[C@](O)(Cn1cncn1)c1ccc(F)cc1F`, for which the melting point fell in the range of 93 to 101 °C. `FC(F)(F)c1cc(CO[C@H]2CCCN(Cc3ncncn3)[C@H]2c2ccccc2)cc(C(F)(F)F)c1` had a melting point of 117 to 119 °C. `C[C@H](N=Cc1ccc(OCc2ccccc2F)cc1)C(N)=O`: the melting point was 121 °C. In the case of `O=C(NC1CCN(CCCOc2ccccc2-c2ncc(C(=O)O)c(O)n2)CC1)c1ccccc1`, the melting point was 145 to 146 °C. `COC(=O)c1nc(C)ccc1OC` returned a melting point of 55 to 57 °C. The same measure for `O=C(O)CCc1cnoc1-c1ccc(Cl)c(F)c1`: 139 to 140 °C.
